The values below come from patent publication US10815244B2, “Isoidide derivatives and methods of making and using same” (Rutgers, the State University of New Jersey, priority 2015, dated 2020).

One assay deals with EGFR kinase (Homo sapiens (Human), UniProt P00533). The experiment in a line: EGFR kinase activity, luminescent ATP/ADP detection assay. Format: biochemical. The note with it: purified EGFR kinase, 10 min incubation, luminescence ADP detection. How it is done: Example RR: EGFR as a Drug Target Assay Conditions
The IC50s of the compounds on EGFR activity were determined using the Luminescent ATP/ADP detection assay system. Briefly, the assay method measures ADP formed from EGFR kinase activity using luminescence derived from ATP-Luciferase detection system. Purified EGFR kinase was incubated with different concentrations of test compound in the kinase reaction buffer for 10 min. The reaction was stopped by depleting the unused ATP in the kinase reaction buffer using the depletion buffer for 40 min. The levels of ADP generated during the kinase reaction was detected by measuring the luminescence using the Luciferase system.

Assay [1] concerns IL-1β (LPS-stimulated PBMCs). The experiment in a line: IL-1β expression in LPS-stimulated PBMCs in the presence of MIF inhibitors (ELISA). Type of assay: cell-based. The note with it: Homo sapiens, PBMC, LPS 10 ng/ml and LPS+MIF, ELISA of supernatant. The protocol: (§1) Example QQ: Macrophage Migration Inhibitory Factor (MIF) as a Drug Target Assay Conditions
(§2) a) PBMC Isolation: • Heparinized blood (10 ml) was diluted with equal volume of phosphate buffer saline (PBS). To the Ficoll solution (5 ml) add 5 ml of blood:PBS mixture and centrifuge at 1600 rpm for 30 minutes. Take the buffy coat and wash with PBS at 1200 rpm for 5 minutes (twice). After two wash with PBS, the PBMCs were washed with RPMI medium. The PBMC were counted and plated in 96 well plates (1×10^6 cells/well).
(§3) b) Expression of TNF-α and […] in PBMCs in the Presence of MIF Inhibitors: • After overnight incubation, the cells were treated with different concentration of MIF inhibitors. After 6 hr, cells were treated with LPS (10 ng/ml) and LPS+MIF combination (10 ng/ml) and further incubated for overnight. PBMCs treated with 10 ng/ml of LPS and MIF in the presence of different concentrations of test compounds. After the incubation period, the supernatant were collected and human TNF-α and IL-1β were determined using the ELISA kits (R&D Systems).
For orientation: An ELISA detects its analyte on a solid surface through an enzyme-linked reagent.

The subject of assay [2] is TNF-α (LPS-stimulated PBMCs). The experiment in a line: TNF-α expression in LPS-stimulated PBMCs in the presence of MIF inhibitors (ELISA). Format: cell-based. Conditions: Homo sapiens, PBMC, LPS 10 ng/ml and LPS+MIF, ELISA of supernatant. How it is done: as §1, §2, §3

Bounds are passed on as bounds.

EGFR kinase, sequence (P00533 25-1210): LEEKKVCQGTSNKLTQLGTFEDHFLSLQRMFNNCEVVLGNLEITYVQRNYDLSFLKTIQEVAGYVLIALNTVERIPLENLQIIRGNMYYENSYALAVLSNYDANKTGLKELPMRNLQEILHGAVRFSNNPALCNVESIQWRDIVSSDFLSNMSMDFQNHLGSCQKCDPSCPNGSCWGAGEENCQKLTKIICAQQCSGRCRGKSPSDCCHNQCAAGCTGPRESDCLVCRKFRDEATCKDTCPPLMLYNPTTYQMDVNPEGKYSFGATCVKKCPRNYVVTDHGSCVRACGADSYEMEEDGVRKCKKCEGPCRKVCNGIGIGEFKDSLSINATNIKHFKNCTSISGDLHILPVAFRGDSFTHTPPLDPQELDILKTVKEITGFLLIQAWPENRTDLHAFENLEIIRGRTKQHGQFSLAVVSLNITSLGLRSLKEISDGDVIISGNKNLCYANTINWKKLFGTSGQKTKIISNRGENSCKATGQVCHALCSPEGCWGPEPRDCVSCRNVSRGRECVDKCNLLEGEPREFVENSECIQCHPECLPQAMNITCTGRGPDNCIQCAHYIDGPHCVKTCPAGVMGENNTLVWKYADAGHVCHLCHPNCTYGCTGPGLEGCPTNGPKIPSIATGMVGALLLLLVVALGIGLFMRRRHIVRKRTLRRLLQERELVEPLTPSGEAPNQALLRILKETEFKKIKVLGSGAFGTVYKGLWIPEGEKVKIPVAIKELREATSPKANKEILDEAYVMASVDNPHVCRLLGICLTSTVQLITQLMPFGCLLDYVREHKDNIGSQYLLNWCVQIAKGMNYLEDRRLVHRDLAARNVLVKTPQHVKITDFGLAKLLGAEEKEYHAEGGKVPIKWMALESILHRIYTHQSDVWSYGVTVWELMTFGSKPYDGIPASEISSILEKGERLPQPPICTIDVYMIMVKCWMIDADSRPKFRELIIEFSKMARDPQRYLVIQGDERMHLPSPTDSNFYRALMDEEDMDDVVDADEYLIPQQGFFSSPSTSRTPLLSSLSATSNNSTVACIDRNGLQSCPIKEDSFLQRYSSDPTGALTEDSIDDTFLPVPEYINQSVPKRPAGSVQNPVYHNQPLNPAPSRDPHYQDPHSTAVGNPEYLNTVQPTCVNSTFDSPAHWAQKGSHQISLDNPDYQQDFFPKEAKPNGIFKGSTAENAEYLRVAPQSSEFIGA

Turning to `CC(=O)O[C@H]1CO[C@H]2[C@@H]1OC[C@@H]2Oc1ccnc(NCc2ccc(F)cc2)n1` [Example II, [(3S,3aR,6S,6aR)-3-[2-[(4-fluorophenyl)methylamino]pyrimidin-4-yl]oxy-2,3,3a,5,6,6a-hexahydrofuro[3,2-b]furan-6-yl] acetate], at EGFR kinase, the “EGFR IC50” value was “Inactive”.

One may read the IC50 as the concentration at which inhibition is half-maximal. In the case of `CCOC(=O)c1c(O[C@H]2CO[C@H]3[C@@H]2OC[C@@H]3OC(=O)CCl)c2ccccc2n(CC)c1=O` [Example C, ethyl 4-[[(3S,3aR,6S,6aR)-6-(2-chloroacetyl)oxy-2,3,3a,5,6,6a-hexahydrofuro[3,2-b]furan-3-yl]oxy]-1-ethyl-2-oxo-1,2-dihydroquinoline-3-carboxylate], the IC50 in assay [1] and in assay [2] was greater than 0.5 µM in each case.

As for `CC(=O)O[C@H]1CO[C@H]2[C@@H]1OC[C@@H]2Oc1ccnc(NC2CCN(S(=O)(=O)c3ccc(C)cc3)CC2)n1` [Example GG, [(3S,3aR,6S,6aR)-3-[2-[(1-tolylsulfonyl-4-piperidyl)amino]pyrimidin-4-yl]oxy-2,3,3a,5,6,6a-hexahydrofuro[3,2-b]furan-6-yl] acetate], the “EGFR IC50” value on EGFR kinase is on record as “Inactive”.

`N#Cc1c(O[C@H]2CO[C@H]3[C@@H]2OC[C@@H]3O)c2ccccc2n(Cc2ccccc2)c1=O` [Example K, 4-[[(3S,3aR,6S,6aR)-3-hydroxy-2,3,3a,5,6,6a-hexahydrofuro[3,2-b]furan-6-yl]oxy]-1-benzyl-2-oxo-1,2-dihydroquinoline-3-carbonitrile]: the IC50 in assay [1] and in assay [2] was greater than 0.1 µM throughout.

On to `CC(=O)O[C@H]1CO[C@H]2[C@@H]1OC[C@@H]2Oc1c(C#N)c(=O)n(Cc2ccc(F)cc2)c2ccccc12` [Example O, [(3S,3aR,6S,6aR)-3-[[3-cyano-1-[(4-fluorophenyl)methyl]-2-oxo-4-quinolyl]oxy]-2,3,3a,5,6,6a-hexahydrofuro[3,2-b]furan-6-yl] acetate], for which the IC50 in assay [1] was greater than 10 µM; in assay [2] it was greater than 0.1 µM.

As to `CCOC(=O)c1c(O[C@H]2CO[C@H]3[C@@H]2OC[C@@H]3O)c2ccccc2n(Cc2ccc(F)cc2)c1=O` [Example I, ethyl 4-[[(3S,3aR,6S,6aR)-3-hydroxy-2,3,3a,5,6,6a-hexahydrofuro[3,2-b]furan-6-yl]oxy]-1-[(4-fluorophenyl)methyl]-2-oxo-1,2-dihydroquinoline-3-carboxylate], the IC50 in assay [1] and in assay [2] was greater than 0.5 µM throughout.

With `CCOC(=O)c1c(O[C@H]2CO[C@H]3[C@@H]2OC[C@@H]3OC(C)=O)c2ccccc2n(Cc2ccccc2)c1=O` [Example F, ethyl 4-[[(3S,3aR,6S,6aR)-6-acetoxy-2,3,3a,5,6,6a-hexahydrofuro[3,2-b]furan-3-yl]oxy]-1-benzyl-2-oxo-1,2-dihydroquinoline-3-carboxylate], the half-maximal inhibitory concentration (IC50) in assay [1] and in assay [2] was greater than 10 µM in each case.

`N#Cc1c(Nc2ccc(O[C@H]3CO[C@H]4[C@@H]3OC[C@@H]4O)c(Cl)c2)c2ccccc2n(Cc2ccccc2)c1=O` [Example R, 4-[4-[[(3S,3aR,6S,6aR)-3-hydroxy-2,3,3a,5,6,6a-hexahydrofuro[3,2-b]furan-6-yl]oxy]-3-chloro-anilino]-1-benzyl-2-oxo-1,2-dihydroquinoline-3-carbonitrile]: the IC50 in assay [1] and in assay [2] was greater than 0.1 µM throughout.

Turning to `CCOC(=O)c1c(O[C@H]2CO[C@H]3[C@@H]2OC[C@@H]3O)c2ccccc2n(Cc2ccccc2)c1=O` [Example E, ethyl 4-[[(3S,3aR,6S,6aR)-3-hydroxy-2,3,3a,5,6,6a-hexahydrofuro[3,2-b]furan-6-yl]oxy]-1-benzyl-2-oxo-1,2-dihydroquinoline-3-carboxylate], the IC50 in assay [1] and in assay [2] was greater than 0.5 µM in each case.

For the compound `CCOC(=O)c1c(O[C@H]2CO[C@H]3[C@@H]2OC[C@@H]3O)c2ccccc2n(CC)c1=O` [Example A, ethyl 4-[[(3S,3aR,6S,6aR)-3-hydroxy-2,3,3a,5,6,6a-hexahydrofuro[3,2-b]furan-6-yl]oxy]-1-ethyl-2-oxo-1,2-dihydroquinoline-3-carboxylate], the IC50 in assay [1] and in assay [2] was greater than 1 µM in each case.

With `CCOC(=O)c1c(O[C@H]2CO[C@H]3[C@@H]2OC[C@@H]3OC(C)=O)c2ccccc2n(CC)c1=O` [Example B, ethyl 4-[[(3S,3aR,6S,6aR)-6-acetoxy-2,3,3a,5,6,6a-hexahydrofuro[3,2-b]furan-3-yl]oxy]-1-ethyl-2-oxo-1,2-dihydroquinoline-3-carboxylate], the IC50 in assay [1] and in assay [2] was greater than 10 µM each time.

For `CCOC(=O)c1c(O[C@H]2CO[C@H]3[C@@H]2OC[C@@H]3OC(=O)CCl)c2ccccc2n(Cc2ccc(F)cc2)c1=O` [Example J, ethyl 4-[[(3S,3aR,6S,6aR)-6-(2-chloroacetyl)oxy-2,3,3a,5,6,6a-hexahydrofuro[3,2-b]furan-3-yl]oxy]-1-[(4-fluorophenyl)methyl]-2-oxo-1,2-dihydroquinoline-3-carboxylate], the IC50 in assay [1] and in assay [2] was greater than 0.1 µM each time.

Regarding `N#Cc1c(O[C@H]2CO[C@H]3[C@@H]2OC[C@@H]3OC(=O)CCl)c2ccccc2n(Cc2ccccc2)c1=O` [Example M, [(3S,3aR,6S,6aR)-3-[(1-benzyl-3-cyano-2-oxo-4-quinolyl)oxy]-2,3,3a,5,6,6a-hexahydrofuro[3,2-b]furan-6-yl] 2-chloroacetate], the IC50 in assay [1] and in assay [2] was greater than 0.5 µM in each case.

For the compound `CCOC(=O)c1c(O[C@H]2CO[C@@H]3C=CO[C@H]23)c2ccccc2n(Cc2ccccc2)c1=O` [Example H, ethyl 4-[[(3S,3aS,6aR)-2,3,3a,6a-tetrahydrofuro[3,2-b]furan-3-yl]oxy]-1-benzyl-2-oxo-1,2-dihydroquinoline-3-carboxylate], the IC50 in assay [1] and in assay [2] was greater than 10 µM throughout.

As for `CCOC(=O)c1c(O[C@H]2CO[C@@H]3C=CO[C@H]23)c2ccccc2n(CC)c1=O` [Example D, ethyl 4-[[(3S,3aS,6aR)-2,3,3a,6a-tetrahydrofuro[3,2-b]furan-3-yl]oxy]-1-ethyl-2-oxo-1,2-dihydroquinoline-3-carboxylate], the IC50 in assay [1] and in assay [2] was greater than 10 µM throughout.

As for `N#Cc1c(O[C@H]2CO[C@H]3[C@@H]2OC[C@@H]3OC(=O)CCl)c2ccccc2n(Cc2ccc(F)cc2)c1=O` [Example Q, [(3S,3aR,6S,6aR)-3-[[3-cyano-1-[(4-fluorophenyl)methyl]-2-oxo-4-quinolyl]oxy]-2,3,3a,5,6,6a-hexahydrofuro[3,2-b]furan-6-yl] 2-chloroacetate], the IC50 in assay [1] and in assay [2] was greater than 0.1 µM throughout.

For `N#Cc1c(O[C@H]2CO[C@H]3[C@@H]2OC[C@@H]3O)c2ccccc2n(Cc2ccc(F)cc2)c1=O` [Example N, 4-[[(3S,3aR,6S,6aR)-3-hydroxy-2,3,3a,5,6,6a-hexahydrofuro[3,2-b]furan-6-yl]oxy]-1-[(4-fluorophenyl)methyl]-2-oxo-1,2-dihydroquinoline-3-carbonitrile], the IC50 in assay [1] was greater than 10 µM; in assay [2], greater than 0.1 µM.

In the case of `N#Cc1c(O[C@H]2CO[C@H]3[C@@H]2OC[C@@H]3OC(=O)c2ccccc2)c2ccccc2n(Cc2ccc(F)cc2)c1=O` [Example P, [(3S,3aR,6S,6aR)-3-[[3-cyano-1-[(4-fluorophenyl)methyl]-2-oxo-4-quinolyl]oxy]-2,3,3a,5,6,6a-hexahydrofuro[3,2-b]furan-6-yl] benzoate], the IC50 in assay [1] and in assay [2] was greater than 10 µM throughout.

Consider `CC(=O)O[C@H]1CO[C@H]2[C@@H]1OC[C@@H]2Oc1c(C#N)c(=O)n(Cc2ccccc2)c2ccccc12` [Example L, [(3S,3aR,6S,6aR)-3-[(1-benzyl-3-cyano-2-oxo-4-quinolyl)oxy]-2,3,3a,5,6,6a-hexahydrofuro[3,2-b]furan-6-yl] acetate], for which the IC50 in assay [1] and in assay [2] was greater than 1 µM each time.

On to `CCOC(=O)c1c(Nc2ccc(O[C@H]3CO[C@H]4[C@@H]3OC[C@@H]4O)c(Cl)c2)c2ccccc2n(Cc2ccccc2)c1=O` [Example S, ethyl 4-[4-[[(3S,3aR,6S,6aR)-3-hydroxy-2,3,3a,5,6,6a-hexahydrofuro[3,2-b]furan-6-yl]oxy]-3-chloro-anilino]-1-benzyl-2-oxo-1,2-dihydroquinoline-3-carboxylate], for which the half-maximal inhibitory concentration (IC50) in assay [1] and in assay [2] was greater than 0.5 µM each time.

For `CCOC(=O)c1c(O[C@H]2CO[C@H]3[C@@H]2OC[C@@H]3OC(=O)CCl)c2ccccc2n(Cc2ccccc2)c1=O` [Example G, ethyl 4-[[(3S,3aR,6S,6aR)-6-(2-chloroacetyl)oxy-2,3,3a,5,6,6a-hexahydrofuro[3,2-b]furan-3-yl]oxy]-1-benzyl-2-oxo-1,2-dihydroquinoline-3-carboxylate], the IC50 in assay [1] and in assay [2] was greater than 0.1 µM each time.
